Assay results: patent US8501766B2, “Treatment of rheumatoid arthritis with a combination of laquinimod and methotrexate” (Teva Pharmaceutical Industries Ltd., priority 2010, dated 2013)

Legend:
Assay type in all cases: in vivo, male DBA/1OlaHsd mice
[1] = system: semi-established type II collagen arthritis; test: 35 day mouse semi-established type II collagen arthritis: body weight, disease incidence, clinical arthritis scores and AUC; conditions: for Reduction of clinical arthritis scores expressed as area under the curve (AUC): days 18-34; for Reduction of clinical arthritis scores expressed as area under the curve (AUC) / Daily clinical arthritis scores: vs vehicle controls
Experimental: Mouse type II collagen arthritis is an art-recognized animal model for rheumatoid arthritis in humans (Bendele, 2001). […] Mice were terminated on day 34. […] Evaluation of serum anti-type II collagen antibody levels were also performed (groups 1-3, 6 and 8 only). All animals survived to study termination. • 1. […] Mice were anesthetized with Isoflurane and given 150 μl of Bovine Type II collagen in Freund's complete adjuvant injections (Sigma) containing bovine type II collagen (Elastin Products, Owensville, Mo.) (2 mg/ml) at the base of the tail (D0 and day 21). • 3. Mice were randomized by body weight into treatment groups on study day 18. • 4. MTX was provided by Bolder BioPATH, Inc. as a 1 mg/ml stock solution purchased from MWI and was prepared as a 0.05 mg/ml solution in 1% CMC for dosing at 10 ml/kg. • 5. All dose solutions were prepared to deliver at 10 ml/kg (0.3 ml/30 g) mouse. • 6. Treatment is initiated on study day 18 and continued once daily, every day (po, qd) according to Table 1. [table] • 7. During the period of treatment, clinical scores were given for each of the paws (right front, left front, right rear, left rear) according to Table 2. [table] • 8. On days 21-35, onset of arthritis occurred. Mice were weighed on arthritis days 18, 20, 22, 24, 26, 28, 30, 32, and prior to tissue collection on day 34 (final day). • 9. At necropsy, animals from all groups were bled via cardiac puncture for serum and terminated via cervical dislocation. Fore paws, hind paws and knees were removed and placed in 10% NBF. Whole blood was allowed to clot at room temperature for approximately 2 hours before being spun at 13,000 rpm for 8 minutes. • 10. Processing of Joints: Following 1-2 days in fixative and then 4-5 days in decalcifier, the joints were processed, embedded, sectioned and stained with toluidine blue and H&E (2 slides per animal). Only fore and hind paws and knees were processed initially (6 joints/mouse). • 11. Morphologic Pathology Methods: […] Hind paws, fore paws, and knees were embedded and sectioned in the frontal plane. Six joints from each animal were processed for histopathology elevation. • 12. Tissue Processing and Evaluation: • a. place joints in decalcifier, • b. trim joints, wash, process tissues, • c. embed joints, • d. section tissues, stain tissues, • e. histopathologic evaluation, and • f. data processing, QC, prepare graphs and report. Histopathologic Scoring Methods for Mouse Joints with Type II Collagen Arthritis Clinical data for paw scores (means for animal) were analyzed by determining the area under the dosing curve (AUC) for study days 18-34. For calculation of AUC, the daily mean scores for each mouse were entered into Microsoft Excel and the area between the treatment days after the onset of disease to the final day was computed. Means for each group were determined and the percent inhibition from arthritis controls was calculated by comparing values for treated and normal animals. […] Percent inhibition of clinical parameters and AUC is calculated using the following formula: % Inhibition=[…], where A=Mean Disease Control−Mean Normal • B=Mean Treated−Mean Normal Results

[2] = system: semi-established type II collagen arthritis; test: Histopathology of fore paws, hind paws and knees in mouse type II collagen arthritis; conditions: vs vehicle controls; for Paw histopathology, reduction of summed scores: 4 paws; for Six-joint mean histopathology, reduction of summed scores: four paws and two knees
Experimental: Mice were terminated on day 34. […] Evaluation of serum anti-type II collagen antibody levels were also performed (groups 1-3, 6 and 8 only). All animals survived to study termination. • 8. On days 21-35, onset of arthritis occurred. Mice were weighed on arthritis days 18, 20, 22, 24, 26, 28, 30, 32, and prior to tissue collection on day 34 (final day). • 9. At necropsy, animals from all groups were bled via cardiac puncture for serum and terminated via cervical dislocation. Fore paws, hind paws and knees were removed and placed in 10% NBF. Whole blood was allowed to clot at room temperature for approximately 2 hours before being spun at 13,000 rpm for 8 minutes. • 10. Processing of Joints: Following 1-2 days in fixative and then 4-5 days in decalcifier, the joints were processed, embedded, sectioned and stained with toluidine blue and H&E (2 slides per animal). Only fore and hind paws and knees were processed initially (6 joints/mouse). • 11. Morphologic Pathology Methods: […] Hind paws, fore paws, and knees were embedded and sectioned in the frontal plane. Six joints from each animal were processed for histopathology elevation. • 12. Tissue Processing and Evaluation: • a. place joints in decalcifier, • b. trim joints, wash, process tissues, • c. embed joints, • d. section tissues, stain tissues, • e. histopathologic evaluation, and • f. data processing, QC, prepare graphs and report. Histopathologic Scoring Methods for Mouse Joints with Type II Collagen Arthritis When scoring paws or ankles from mice with lesions of type II collagen arthritis, severity of changes as well as number of individual joints affected must be considered. When only 1-3 joints of the paws or ankles out of a possibility of numerous metacarpal/metatarsal/digit or tarsal/tibiotarsal joints were affected, an arbitrary assignment of a maximum score of 1, 2 or 3 for parameters below (Tables 3-6) was given depending on severity of changes. If more than 3 joints were involved, the criteria below (Tables 3-6) were applied to the most severely affected/majority of joints. [table] [table] [table] [table] For each animal, the inflammation, pannus, cartilage damage and bone damage scores was determined for each of the 6 joints submitted. A sum total (all 6 joints) animal score and a six joint mean animal score was determined as well as sums and means for each of the individual parameters. Data were also expressed as means for paws (4 joints) or knees (2 joints). Parameters for the various groups are then compared to disease control animals. Clinical data for paw scores (means for animal) were analyzed by determining the area under the dosing curve (AUC) for study days 18-34. For calculation of AUC, the daily mean scores for each mouse were entered into Microsoft Excel and the area between the treatment days after the onset of disease to the final day was computed. Means for each group were determined and the percent inhibition from arthritis controls was calculated by comparing values for treated and normal animals.

[3] = system: serum anti-type II collagen antibody; test: Serum anti-type II collagen antibody levels in mouse type II collagen arthritis; conditions: vs vehicle controls
Experimental: Mice were terminated on day 34. […] Evaluation of serum anti-type II collagen antibody levels were also performed (groups 1-3, 6 and 8 only). […] At necropsy, animals from all groups were bled via cardiac puncture for serum and terminated via cervical dislocation. […] Whole blood was allowed to clot at room temperature for approximately 2 hours before being spun at 13,000 rpm for 8 minutes. • 10. […] Histopathologic Scoring Methods for Mouse Joints with Type II Collagen Arthritis Serum analysis for anti-TTC levels was performed on mice from groups 1-3, 6, and 8 only.

CCN(C(=O)c1c(O)c2c(Cl)cccc2n(C)c1=O)c1ccccc1 [Laquinimod]
Disease incidence ([1]; 0.2 mg/kg Laquinimod po QD, by study day 28): 100% | Daily clinical arthritis scores prior to disease occurrence in the vehicle control group ([1]; 0.2 mg/kg Laquinimod po QD, d23): significantly elevated | Reduction of clinical arthritis scores expressed as area under the curve (AUC) ([1]; 0.2 mg/kg Laquinimod po QD): 32% | Daily clinical arthritis scores ([1]; 0.2 mg/kg Laquinimod po QD, significant d28-34): significantly reduced | Disease incidence ([1]; 1 mg/kg Laquinimod po QD, at study termination): 90% | Daily clinical arthritis scores prior to disease occurrence in the vehicle control group ([1]; 1 mg/kg Laquinimod po QD, d22-24): significantly elevated | Reduction of clinical arthritis scores expressed as area under the curve (AUC) ([1]; 1 mg/kg Laquinimod po QD): 52% | Daily clinical arthritis scores ([1]; 1 mg/kg Laquinimod po QD, significant d25-34): significantly reduced | Disease incidence ([1]; 5 mg/kg Laquinimod po QD): 70% | Daily clinical arthritis scores prior to disease occurrence in the vehicle control group ([1]; 5 mg/kg Laquinimod po QD, d22-23): significantly elevated | Reduction of clinical arthritis scores expressed as area under the curve (AUC) ([1]; 5 mg/kg Laquinimod po QD): 69% | Daily clinical arthritis scores ([1]; 5 mg/kg Laquinimod po QD, significant d24-34): significantly reduced | Paw histopathology, reduction of summed scores ([2]; 1 mg/kg Laquinimod po QD): 61% | Six-joint mean histopathology, reduction of summed scores ([2]; 1 mg/kg Laquinimod po QD): 60% | Reduction of knee cartilage damage ([2]; 1 mg/kg Laquinimod po QD): 62% | Reduction of knee inflammation ([2]; 1 mg/kg Laquinimod po QD): 51% | Reduction of knee pannus ([2]; 1 mg/kg Laquinimod po QD): 59% | Reduction of summed knee scores ([2]; 1 mg/kg Laquinimod po QD): 57% | Serum Anti-TTC level ([3]; 5 mg/kg Laquinimod po QD): not significantly affected

CN(Cc1cnc2nc(N)nc(N)c2n1)c1ccc(C(=O)N[C@@H](CCC(=O)O)C(=O)O)cc1 [MTX, Methotrexate]
Disease incidence ([1]; MTX 0.5 mg/kg po QD, at study termination): 90% | Reduction of clinical arthritis scores expressed as area under the curve (AUC) ([1]; MTX 0.5 mg/kg po QD): 50% | Daily clinical arthritis scores ([1]; MTX 0.5 mg/kg po QD, significant days 27-34): significantly reduced | Paw histopathology, reduction of summed scores ([2]; MTX 0.5 mg/kg po QD): 46% | Six-joint mean histopathology, reduction of summed scores ([2]; MTX 0.5 mg/kg po QD): 43% | Serum Anti-TTC level ([3]; MTX 0.5 mg/kg po QD): not significantly affected
